Measured values from US6358885B1, “Substituted phenylheterocyclic herbicides” (Mississippi State University, priority 1992, dated 2002).

Experiments:
arrowhead = experiment: Test D paddy water application plant response rating 0 to 100; format: in vivo, Sagittaria spp.; conditions: 0 to 100 scale, approx. 21 days
Excerpt: (§1) Plastic pots were partially filled with silt loam soil. The soil was then saturated with water. […] After planting, water levels were raised to 3 cm above the soil surface and maintained at this level throughout the test. Chemical treatments were formulated in a non-phytotoxic solvent and applied directly to the paddy water. Treated plants and controls were maintained in a greenhouse for approximately 21 days, after which all species were compared to controls and visually evaluated. […] A dash (-) response means no test result.

barnyardgrass [1] = experiment: Test E paddy water application plant response rating 0 to 100; format: in vivo, Echinochloa crus-galli; conditions: Flood, 0 to 100 scale, approx. 21 days
Excerpt: (§2) Plastic pots were partially filled with silt loam soil. […] At testing, the water level for all plantings was raised to 2 cm above the soil surface. Chemical treatments were formulated in a non-phytotoxic solvent and applied directly to the paddy water. Treated plants and controls were maintained in a greenhouse for approximately 21 days, after which all species were compared to controls and visually evaluated. […] A dash (-) response means no test result.

waterchestnut = experiment: Test D paddy water application plant response rating 0 to 100; format: in vivo, Eleocharis spp.; conditions: 0 to 100 scale, approx. 21 days
Excerpt: as §1

Japonica rice [2] = experiment: Test E paddy water application plant response rating 0 to 100; format: in vivo, oryza sativa; conditions: Flood, 0 to 100 scale, approx. 21 days
Excerpt: as §2

duck salad = experiment: Test D paddy water application plant response rating 0 to 100; format: in vivo, Heteranthera limosa; conditions: 0 to 100 scale, approx. 21 days
Excerpt: as §1

umbrella sedge = experiment: as above; format: in vivo, Cyperus difformis; conditions: 0 to 100 scale, approx. 21 days
Excerpt: as §1

Japonica rice [3] = experiment: as above; format: in vivo, Oryza sativa; conditions: 0 to 100 scale, approx. 21 days
Excerpt: as §1

barnyardgrass [4] = experiment: as above; format: in vivo, Echinochloa crus-galli; conditions: 0 to 100 scale, approx. 21 days
Excerpt: as §1

sunflower = experiment: Test F preemergence/postemergence greenhouse plant response rating 0 to 100; format: in vivo, Helianthus annuus cv. ‘Russian Giant’; conditions: POSTEMERGENCE, 0 to 100 scale
Excerpt: (§3) Compounds evaluated in this test were formulated in a non-phytoxic solvent and applied to the soil surface before plant seedlings emerged (preemergence application) and to plants that were in the one-to-four leaf stage (postemergence application). A sandy loam soil was used for the preemergence test while a mixture of sandy loam soil and greenhouse potting mix in a 60:40 ratio was used for the postemergence test. Test compounds were applied within approximately one day after planting seeds for the preemergence test. Plantings of these crops and weed species were adjusted to produce plants of appropriate size for the postemergence test. All plant species were grown using normal greenhouse practices. Crop and weed species include winter barley (Hordeum vulgare cv. ‘Igri’), blackgrass (Alopecurus myosuroides), chickweed (Stellaria media), downy brome (Bromus tectorum), field violet (Viola arvensis), galium (Galium aparine), green foxtail (Setaria viridis), kochia (Kochia scoparia), lambsquarters (Chenopodium album), speedwell (Veronica persica), rape (Brassica napus), ryegrass (Lolium multiflorum), sugar beet (Beta vulgaris cv. ‘USl’), sunflower (Helianthus annuus cv. ‘Russian Giant’), spring wheat (Triticum aestivum cv. ‘ERA’), winter wheat (Triticum aestivum cv. ‘Talent’), wild buckwheat (Polygonum convolvulus), wild mustard (Sinapis arvensis), wild oat (Avena fatua), and wild radish (Raphanus raphanistrum). Blackgrass, galium and wild oat were treated at two growth stages. […] Treated plants and untreated controls were maintained in a greenhouse for approximately 21 to 28 days, after which all treated plants were compared to untreated controls and visually evaluated. […] A dash response (-) means no test result.

rape = experiment: as above; format: in vivo, Brassica napus; conditions: POSTEMERGENCE, 0 to 100 scale
Excerpt: as §3

sugar beet = experiment: as above; format: in vivo, Beta vulgaris cv. ‘USl’; conditions: POSTEMERGENCE, 0 to 100 scale
Excerpt: as §3

field violet = experiment: as above; format: in vivo, Viola arvensis; conditions: POSTEMERGENCE, 0 to 100 scale
Excerpt: as §3

ryegrass = experiment: as above; format: in vivo, Lolium multiflorum; conditions: POSTEMERGENCE, 0 to 100 scale
Excerpt: as §3

green foxtail = experiment: as above; format: in vivo, Setaria viridis; conditions: POSTEMERGENCE, 0 to 100 scale
Excerpt: as §3

C#CCN1C(=O)COc2cc(F)c(-c3nn4c(c3Cl)CCCC4)cc21 [Compound 34]
Arrowhead plant response rating (arrowhead; Rate 4 g/ha): 85
Arrowhead plant response rating (arrowhead; Rate 8 g/ha): 90
Arrowhead plant response rating (arrowhead; Rate 16 g/ha): 90
Arrowhead plant response rating (arrowhead; Rate 32 g/ha): 100
Arrowhead plant response rating (arrowhead; Rate 64 g/ha): 100
Barnyardgrass 2 plant response rating (barnyardgrass [1]; Rate 16 g/ha): 85
Barnyardgrass 3 plant response rating (barnyardgrass [1]; Rate 16 g/ha): 35
Barnyardgrass 2 plant response rating (barnyardgrass [1]; Rate 32 g/ha): 90
Barnyardgrass 3 plant response rating (barnyardgrass [1]; Rate 32 g/ha): 45
Barnyardgrass 2 plant response rating (barnyardgrass [1]; Rate 64 g/ha): 95
Barnyardgrass 3 plant response rating (barnyardgrass [1]; Rate 64 g/ha): 45
Barnyardgrass 2 plant response rating (barnyardgrass [1]; Rate 125 g/ha): 100
Barnyardgrass 3 plant response rating (barnyardgrass [1]; Rate 125 g/ha): 50
Barnyardgrass 2 plant response rating (barnyardgrass [1]; Rate 250 g/ha): 100
Barnyardgrass 3 plant response rating (barnyardgrass [1]; Rate 250 g/ha): 95
Waterchestnut plant response rating (waterchestnut; Rate 4 g/ha): 20
Waterchestnut plant response rating (waterchestnut; Rate 8 g/ha): 20
Waterchestnut plant response rating (waterchestnut; Rate 32 g/ha): 20
Waterchestnut plant response rating (waterchestnut; Rate 64 g/ha): 20
Japonica 1 plant response rating (Japonica rice [2]; Rate 16 g/ha): 75
Japonica 2 plant response rating (Japonica rice [2]; Rate 16 g/ha): 25
Japonica 1 plant response rating (Japonica rice [2]; Rate 32 g/ha): 85
Japonica 2 plant response rating (Japonica rice [2]; Rate 32 g/ha): 30
Japonica 1 plant response rating (Japonica rice [2]; Rate 64 g/ha): 95
Japonica 2 plant response rating (Japonica rice [2]; Rate 64 g/ha): 45
Japonica 1 plant response rating (Japonica rice [2]; Rate 125 g/ha): 98
Japonica 2 plant response rating (Japonica rice [2]; Rate 125 g/ha): 60
Japonica 1 plant response rating (Japonica rice [2]; Rate 250 g/ha): 100
Japonica 2 plant response rating (Japonica rice [2]; Rate 250 g/ha): 95
Duck salad plant response rating (duck salad; Rate 4 g/ha): 0
Duck salad plant response rating (duck salad; Rate 8 g/ha): 0
Duck salad plant response rating (duck salad; Rate 16 g/ha): 0
Duck salad plant response rating (duck salad; Rate 32 g/ha): 0
Duck salad plant response rating (duck salad; Rate 64 g/ha): 60
Umbrella sedge plant response rating (umbrella sedge; Rate 4 g/ha): 0
Umbrella sedge plant response rating (umbrella sedge; Rate 8 g/ha): 20
Umbrella sedge plant response rating (umbrella sedge; Rate 16 g/ha): 50
Umbrella sedge plant response rating (umbrella sedge; Rate 32 g/ha): 70
Umbrella sedge plant response rating (umbrella sedge; Rate 64 g/ha): 80
Japonica rice plant response rating (Japonica rice [3]; Rate 4 g/ha): 20
Japonica rice plant response rating (Japonica rice [3]; Rate 8 g/ha): 30
Japonica rice plant response rating (Japonica rice [3]; Rate 16 g/ha): 55
Japonica rice plant response rating (Japonica rice [3]; Rate 32 g/ha): 40
Japonica rice plant response rating (Japonica rice [3]; Rate 64 g/ha): 50
Barnyardgrass 2 plant response rating (barnyardgrass [4]; Rate 4 g/ha): 0
Barnyardgrass 2 plant response rating (barnyardgrass [4]; Rate 8 g/ha): 10
Barnyardgrass 2 plant response rating (barnyardgrass [4]; Rate 16 g/ha): 20
Barnyardgrass 2 plant response rating (barnyardgrass [4]; Rate 32 g/ha): 30
Barnyardgrass 2 plant response rating (barnyardgrass [4]; Rate 64 g/ha): 50

C#CC(C)N1C(=O)COc2cc(F)c(-c3nn4c(c3Cl)CCCC4)cc21 (stereo not drawn) [Compound 50]
Sunflower plant response rating (sunflower; Rate 16 g/ha): 40
Sunflower plant response rating (sunflower; Rate 32 g/ha): 60
Sunflower plant response rating (sunflower; Rate 64 g/ha): 60
Sunflower plant response rating (sunflower; Rate 125 g/ha): 100
Barnyardgrass 2 plant response rating (barnyardgrass [1]; Rate 8 g/ha): 15
Barnyardgrass 3 plant response rating (barnyardgrass [1]; Rate 8 g/ha): 10
Barnyardgrass 2 plant response rating (barnyardgrass [1]; Rate 16 g/ha): 15
Barnyardgrass 3 plant response rating (barnyardgrass [1]; Rate 16 g/ha): 15
Barnyardgrass 2 plant response rating (barnyardgrass [1]; Rate 32 g/ha): 25
Barnyardgrass 3 plant response rating (barnyardgrass [1]; Rate 32 g/ha): 20
Barnyardgrass 2 plant response rating (barnyardgrass [1]; Rate 64 g/ha): 35
Barnyardgrass 3 plant response rating (barnyardgrass [1]; Rate 64 g/ha): 35
Barnyardgrass 2 plant response rating (barnyardgrass [1]; Rate 125 g/ha): 55
Barnyardgrass 3 plant response rating (barnyardgrass [1]; Rate 125 g/ha): 60
Japonica 1 plant response rating (Japonica rice [2]; Rate 8 g/ha): 0
Japonica 2 plant response rating (Japonica rice [2]; Rate 8 g/ha): 15
Japonica 1 plant response rating (Japonica rice [2]; Rate 16 g/ha): 20
Japonica 2 plant response rating (Japonica rice [2]; Rate 16 g/ha): 20
Japonica 1 plant response rating (Japonica rice [2]; Rate 32 g/ha): 40
Japonica 2 plant response rating (Japonica rice [2]; Rate 32 g/ha): 30
Japonica 1 plant response rating (Japonica rice [2]; Rate 64 g/ha): 50
Japonica 2 plant response rating (Japonica rice [2]; Rate 64 g/ha): 35
Japonica 1 plant response rating (Japonica rice [2]; Rate 125 g/ha): 75
Japonica 2 plant response rating (Japonica rice [2]; Rate 125 g/ha): 45
Rape plant response rating (rape; Rate 16 g/ha): 100
Rape plant response rating (rape; Rate 32 g/ha): 100
Rape plant response rating (rape; Rate 64 g/ha): 100
Rape plant response rating (rape; Rate 125 g/ha): 100
Sugar beet plant response rating (sugar beet; Rate 16 g/ha): 100
Sugar beet plant response rating (sugar beet; Rate 32 g/ha): 100
Sugar beet plant response rating (sugar beet; Rate 64 g/ha): 100
Sugar beet plant response rating (sugar beet; Rate 125 g/ha): 100
Field violet plant response rating (field violet; Rate 16 g/ha): 100
Field violet plant response rating (field violet; Rate 32 g/ha): 100
Field violet plant response rating (field violet; Rate 64 g/ha): 100
Field violet plant response rating (field violet; Rate 125 g/ha): 100
Ryegrass plant response rating (ryegrass; Rate 16 g/ha): 0
Ryegrass plant response rating (ryegrass; Rate 32 g/ha): 0
Ryegrass plant response rating (ryegrass; Rate 64 g/ha): 0
Ryegrass plant response rating (ryegrass; Rate 125 g/ha): 10
Green foxtail plant response rating (green foxtail; Rate 16 g/ha): 0
Green foxtail plant response rating (green foxtail; Rate 32 g/ha): 0
Green foxtail plant response rating (green foxtail; Rate 64 g/ha): 50
Green foxtail plant response rating (green foxtail; Rate 125 g/ha): 50
